Drawing on publication PMC12857369 (Kidney International Reports, 2025), this text covers IC50 for one compound.

The target of this assay is T1, chymase (Homo sapiens, UniProt P23946).
T1 construct: gene CMA1; recombinant human chymase
T1 sequence (P23946 22-247): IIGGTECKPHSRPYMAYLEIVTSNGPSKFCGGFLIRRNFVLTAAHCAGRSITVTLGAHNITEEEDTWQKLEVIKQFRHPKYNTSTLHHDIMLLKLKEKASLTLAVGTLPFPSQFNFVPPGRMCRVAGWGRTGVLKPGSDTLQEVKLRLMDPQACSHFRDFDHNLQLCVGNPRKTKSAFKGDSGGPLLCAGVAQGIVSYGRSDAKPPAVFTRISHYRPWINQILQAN
As to the kind of experiment: Ang I to Ang II conversion by recombinant human chymase, LC-MS/MS dose response. The assay is classed as biochemical.

`CC(C)C[C@H](NC(=O)[C@@H](NC(=O)N[C@@H](Cc1ccccc1)C(=O)O)[C@@H]1CCN=C(N)N1)C(=O)N[C@H](C=O)Cc1ccccc1` [chymostatin]: the IC50 was determined as 0.06 µM.

A word on the IC50: it is the concentration that gives 50% inhibition.
